# Where a name gives a salt, the structure may show the parent alone.
# Molecular target: T1, CYP11A1 (Homo sapiens, UniProt P05108)
# T1 construct: human H295R adrenocortical carcinoma cell line was used as source of enzyme; endogenous in cells; host or cells: H295R human adrenocortical carcinoma cells
# T1 sequence (P05108 40-521): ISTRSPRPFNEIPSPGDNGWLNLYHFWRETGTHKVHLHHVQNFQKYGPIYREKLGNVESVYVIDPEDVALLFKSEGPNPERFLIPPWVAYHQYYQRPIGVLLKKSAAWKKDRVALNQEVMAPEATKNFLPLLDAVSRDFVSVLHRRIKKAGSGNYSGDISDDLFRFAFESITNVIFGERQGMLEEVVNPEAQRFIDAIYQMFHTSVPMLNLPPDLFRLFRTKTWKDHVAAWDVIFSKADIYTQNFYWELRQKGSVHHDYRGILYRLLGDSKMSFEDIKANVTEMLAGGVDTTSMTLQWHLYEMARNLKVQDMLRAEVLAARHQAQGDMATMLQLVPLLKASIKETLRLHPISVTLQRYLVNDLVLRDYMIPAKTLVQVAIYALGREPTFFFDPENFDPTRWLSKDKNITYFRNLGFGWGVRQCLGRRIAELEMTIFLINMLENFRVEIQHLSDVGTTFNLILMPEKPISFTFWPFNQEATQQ
# Test: CYP11A1 inhibition: modified isocaproic acid release assay (IARA) in H295R cells
# Format: cell-based
# Conditions: human H295R adrenocortical carcinoma cells treated three days, 3 nM [24,25-3H]-labelled cholesterol, 1% DMSO, 10 concentrations in duplicates; read-out: IC50 of the test compounds on CYP11A1 inhibition
# Method in brief: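 Cholesterol side-chain cleavage followed as tritiated isocaproic acid in charcoal-extracted medium, counted by scintillation. Substrate was 3 nM [24,25-3H]-cholesterol on human H295R cells exposed for three days to ten compound concentrations (duplicates, 1% DMSO); IC50 derived.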
row,IC50 [µM],SMILES
1,0.301 to 2,"CS(=O)(=O)N1CCC(COc2coc(CN3Cc4ccc(C#N)cc4C3)cc2=O)CC1 [Compound 245a, 2-((5-((1-(methylsulfonyl)piperidin-4-yl)methoxy)-4-oxo-4H-pyran-2-yl)methyl)-isoindoline-5-carbonitrile]"
2,0.15 to 0.3,"O=C(NC1CC1)N1CCC(COc2coc(CN3Cc4ccccc4C3)cc2=O)CC1 [Compound 247, N-Cyclopropyl-4-(((6-(isoindolin-2-ylmethyl)-4-oxo-4H-pyran-3-yl)oxy)-methyl)piperidine-1-carboxamide]"
3,0.15 to 0.3,"CC(C)(C)NC(=O)N1CCC(COc2coc(CN3Cc4ccccc4C3)cc2=O)CC1 [Compound 248, N-(tert-Butyl)-4-(((6-(isoindolin-2-ylmethyl)-4-oxo-4H-pyran-3-yl)oxy)-methyl)piperidine-1-carboxamide]"
4,< 0.15,"CC(C)CC(=O)C(=O)N1CCC(COc2coc(CN3Cc4ccccc4C3)cc2=O)CC1 [Compound 249, 1-(4-(((6-(Isoindolin-2-ylmethyl)-4-oxo-4H-pyran-3-yl)oxy)methyl)piperidin-1-yl)-4-methylpentane-1,2-dione]"
5,0.15 to 0.3,"CNC(=S)N1CCC(COc2coc(CN3Cc4ccccc4C3)cc2=O)CC1 [Compound 250, 4-(((6-(Isoindolin-2-ylmethyl)-4-oxo-4H-pyran-3-yl)oxy)methyl)-N-methyl-piperidine-1-carbothioamide]"
6,< 0.15,"CC(C)(C)C(=O)N1CCC(COc2coc(CN3Cc4ccccc4C3)cc2=O)CC1 [Compound 251, 2-(Isoindolin-2-ylmethyl)-5-((1-pivaloylpiperidin-4-yl)methoxy)-4H-pyran-4-one]"
7,0.15 to 0.3,"CC(=O)N1CCC(COc2coc(CN3Cc4ccccc4C3)cc2=O)CC1 [Compound 252, 5-((1-Acetylpiperidin-4-yl)methoxy)-2-(isoindolin-2-ylmethyl)-4H-pyran-4-one]"
8,0.301 to 2,O=c1cc(CN2Cc3ccccc3C2)occ1OCC1CCN(S(=O)(=O)CC(F)(F)F)CC1 [Compound 253]
9,< 0.15,"N#CCS(=O)(=O)N1CCC(COc2coc(CN3Cc4ccccc4C3)cc2=O)CC1 [Compound 254, 2-((4-(((6-(Isoindolin-2-ylmethyl)-4-oxo-4H-pyran-3-yl)oxy)methyl)piperidin-1-yl)sulfonyl)acetonitrile]"
10,< 0.15,"Cn1nccc1S(=O)(=O)N1CCC(COc2coc(CN3Cc4ccccc4C3)cc2=O)CC1 [Compound 255, 2-(Isoindolin-2-ylmethyl)-5-((1-((1-methyl-1H-pyrazol-5-yl)sulfonyl)piperidin-4-yl)methoxy)-4H-pyran-4-one]"
11,0.15 to 0.3,"O=c1cc(CN2Cc3ccccc3C2)occ1OCC1CCN(S(=O)(=O)c2ccc(F)cc2)CC1 [Compound 256, 5-((1-((4-Fluorophenyl)sulfonyl)piperidin-4-yl)methoxy)-2-(isoindolin-2-yl-methyl)-4H-pyran-4-one]"
12,< 0.15,"CC(=O)OCC(=O)N1CCC(COc2coc(CN3Cc4ccccc4C3)cc2=O)CC1 [Compound 257, 2-(4-(((6-(Isoindolin-2-ylmethyl)-4-oxo-4H-pyran-3-yl)oxy)methyl)piperidin-1-yl)-2-oxoethyl acetate]"
13,0.15 to 0.3,"C=CC(=O)N1CCC(COc2coc(CN3Cc4ccccc4C3)cc2=O)CC1 [Compound 258, 5-((1-Acryloylpiperidin-4-yl)methoxy)-2-(isoindolin-2-ylmethyl)-4H-pyran-4-one]"
14,0.15 to 0.3,"O=C(c1ccco1)N1CCC(COc2coc(CN3Cc4ccccc4C3)cc2=O)CC1 [Compound 260, 5-((1-(Furan-2-carbonyl)piperidin-4-yl)methoxy)-2-(isoindolin-2-ylmethyl)-4H-pyran-4-one]"
15,< 0.15,"CCC(=O)N1CCC(COc2coc(CN3Cc4ccccc4C3)cc2=O)CC1 [Compound 261, 2-(Isoindolin-2-ylmethyl)-5-((1-propionylpiperidin-4-yl)methoxy)-4H-pyran-4-one]"
16,< 0.15,"COCCS(=O)(=O)N1CCC(COc2coc(CN3Cc4ccccc4C3)cc2=O)CC1 [Compound 262, 2-(Isoindolin-2-ylmethyl)-5-((1-((2-methoxyethyl)sulfonyl)piperidin-4-yl)-methoxy)-4H-pyran-4-one]"
17,0.301 to 2,"Nc1cccc(COc2coc(CN3Cc4ccccc4C3)cc2=O)c1 [Compound 263, 5-((3-Aminobenzyl)oxy)-2-(isoindolin-2-ylmethyl)-4H-pyran-4-one]"
18,0.15 to 0.3,"O=c1cc(CN2Cc3ccccc3C2)occ1OCC1CCN(S(=O)(=O)N2CCCC2)CC1 [Compound 267, 2-(Isoindolin-2-ylmethyl)-5-((1-(pyrrolidin-1-ylsulfonyl)piperidin-4-yl)methoxy)-4H-pyran-4-one]"

row,IC50 [µM],SMILES
1,0.15 to 0.3,"O=c1cc(CN2Cc3ccccc3C2)occ1OCC1CCN(S(=O)(=O)N2CCC2)CC1 [Compound 268, 5-((1-(Azetidin-1-ylsulfonyl)piperidin-4-yl)methoxy)-2-(isoindolin-2-ylmethyl)-4H-pyran-4-one]"
2,0.15 to 0.3,"CCOC(=O)C(=O)N1CCC(COc2coc(CN3Cc4ccccc4C3)cc2=O)CC1 [Compound 269, Ethyl 2-(4-(((6-(isoindolin-2-ylmethyl)-4-oxo-4H-pyran-3-yl)oxy)methyl)-piperidin-1-yl)-2-oxoacetate]"
3,0.15 to 0.3,"CC(C)S(=O)(=O)N1CCC(COc2coc(CN3Cc4ccccc4C3)cc2=O)CC1 [Compound 270, 2-(Isoindolin-2-ylmethyl)-5-((1-(isopropylsulfonyl)piperidin-4-yl)methoxy)-4H-pyran-4-one]"
4,< 0.15,"CC(C)CS(=O)(=O)N1CCC(COc2coc(CN3Cc4ccccc4C3)cc2=O)CC1 [Compound 271, 5-((1-(Isobutylsulfonyl)piperidin-4-yl)methoxy)-2-(isoindolin-2-ylmethyl)-4H-pyran-4-one]"
5,< 0.15,"CC(C)C(=O)N1CCC(COc2coc(CN3Cc4ccccc4C3)cc2=O)CC1 [Compound 272, 5-((1-Isobutyrylpiperidin-4-yl)methoxy)-2-(isoindolin-2-ylmethyl)-4H-pyran-4-one]"
6,0.15 to 0.3,"O=C(N1CCC(COc2coc(CN3Cc4ccccc4C3)cc2=O)CC1)C(F)(F)F [Compound 273, 2-(Isoindolin-2-ylmethyl)-5-((1-(2,2,2-trifluoroacetyl)piperidin-4-yl)methoxy)-4H-pyran-4-one]"
7,0.301 to 2,"CS(=O)(=O)N1CC[C@@H](COc2coc(CN3Cc4ccccc4C3)cc2=O)C1 [Compound 277, (R)-2-(Isoindolin-2-ylmethyl)-5-((1-(methylsulfonyl)pyrrolidin-3-yl)methoxy)-4H-pyran-4-one]"
8,< 0.15,"N#Cc1ccc(COc2coc(CN3Cc4ccc(Br)cc4C3)cc2=O)cc1 [Compound 278, 4-((6-((5-Bromoisoindolin-2-yl)methyl)-4-oxo-4H-pyran-3-yloxy)methyl)benzonitrile]"
9,0.15 to 0.3,"Cc1ccc2c(c1)CN(Cc1cc(=O)c(OCc3ccc(S(C)(=O)=O)cc3)co1)C2 [Compound 279, 2-((5-Methylisoindolin-2-yl)methyl)-5-((4-(methylsulfonyl)benzyl)oxy)-4H-pyran-4-one]"
10,0.15 to 0.3,"CSc1ccc2c(c1)CN(Cc1cc(=O)c(OCc3ccc(S(C)(=O)=O)cc3)co1)C2 [Compound 280, 5-((4-(Methylsulfonyl)benzyl)oxy)-2-((5-(methylthio)isoindolin-2-yl)methyl)-4H-pyran-4-one]"
11,0.301 to 2,"CS(=O)(=O)c1ccc(COc2coc(CN3Cc4cccc(Cl)c4C3)cc2=O)cc1 [Compound 281, 2-((4-Chloroisoindolin-2-yl)methyl)-5-((4-(methylsulfonyl)benzyl)oxy)-4H-pyran-4-one]"
12,0.301 to 2,"O=C(NCCCO)c1ccc(COc2coc(CN3Cc4ccccc4C3)cc2=O)cc1 [Compound 282, N-(3-Hydroxypropyl)-4-(((6-(isoindolin-2-ylmethyl)-4-oxo-4H-pyran-3-yl)oxy)methyl)benzamide]"
13,0.15 to 0.3,"CC(C)(CO)NC(=O)c1ccc(COc2coc(CN3Cc4ccccc4C3)cc2=O)cc1 [Compound 283, N-(1-hydroxy-2-methylpropan-2-yl)-4-(((6-(isoindolin-2-ylmethyl)-4-oxo-4H-pyran-3-yl)oxy)methyl)benzamide]"
14,0.15 to 0.3,"O=CN1CCC(COc2coc(CN3Cc4ccccc4C3)cc2=O)CC1 [Compound 284, 4-(((6-(Isoindolin-2-ylmethyl)-4-oxo-4H-pyran-3-yl)oxy)methyl)piperidine-1-carbaldehyde, HCl]"
15,< 0.15,"C[S@@](=N)(=O)c1ccc(COc2coc(CN3Cc4ccc(C(F)(F)F)cc4C3)cc2=O)cc1 [Compound 286, 5-((4-(R-Methylsulfonimidoyl)-benzyl)oxy)-2-((5-(trifluoromethyl)isoindolin-2-yl)methyl)-4H-pyran-4-one]"
16,0.301 to 2,"CS(=O)(=O)N1CCC(COc2coc(Cn3cc4ccc(C(F)(F)F)cc4c3)cc2=O)CC1 [Compound 287, 5-((1-(Methylsulfonyl)piperidin-4-yl)methoxy)-2-((5-(trifluoromethyl)-2H-isoindol-2-yl)methyl)-4H-pyran-4-one]"
17,0.301 to 2,"CS(=O)(=O)N1CCC(COc2coc(C[N+]3([O-])Cc4ccccc4C3)cc2=O)CC1 [Compound 289, 2-((5-((1-(Methylsulfonyl)piperidin-4-yl)methoxy)-4-oxo-4H-pyran-2-yl)-methyl)isoindoline 2-oxide]"
